For data set [1], the system named is HGF. The experiment in a line: Differential gene expression by qRT-PCR in dermal papilla cells: HGF. The format is cell-based. Particulars: 24 h, Taurin 0,5 %, Coffein 0,025 %; for HGF Mittelwert: untreated Kontrolle = 1, spread in brackets, 4 biological replicates, >=2 or <=0,5 signifikant, >=1,5 or <=0,6 tendenziell; for Expression von HGF: result in words. From the text: (§1) Tabelle 2: Untersuchte Lösungen
(§2) Hepatocyte Growth Factor (HGF) und Keratinocyte Growth Factor (KGF) sind wichtige Wachstumsfaktoren, die von den dermalen Papillenzellen synthetisiert werden. Im Speziellen stimuliert HGF das Follikelwachstum und KGF die Keratinozytenproliferation. Entsprechend werden HGF und KGF in der Wachstumsphase vermehrt exprimiert.
(§3) Die differentielle Genexpression wurde mittels quantitatitiver Reverse-Transkription Polymerase Kettenreaktion (qRT-PCR) bestimmt. Nach Anzucht der dermalen Papillenzellen wurden jeweils 4 biologische Replikate für 24 h mit den Lösungen gemäß Tabelle 2 inkubiert. Zur Durchführung der qRT-PCR wird zunächst mit Hilfe des RNeasy Mini Kits der Fa. Qiagen die RNA aus den dermalen Papillenzellen isoliert und mittels reverser Transkription in cDNA umgeschrieben. Bei der anschließenden PCR Reaktion, die mit Hilfe genspezifischer Primer für die jeweiligen haarrelevanten Gene durchgeführt wird und die der Amplifikation der gesuchten Genabschnitte dient, wird die Bildung der PCR-Produkte online über ein Fluoreszenzsignal detektiert. Das Fluoreszenzsignal ist dabei proportional zur Menge des gebildeten PCR-Produktes. Je stärker die Expression eines bestimmten Gens ist, desto größer ist die Menge an gebildetem PCR-Produkt und umso höher ist das Fluoreszenzsignal.
(§4) Zur Quantifizierung der Genexpression wird die unbehandelte Kontrolle gleich 1 gesetzt und die Expression der zu bestimmenden Gene darauf bezogen (x-fache Expression). Dabei werden Werte, die größer/gleich der 2-fachen Expression oder kleiner/gleich der 0,5-fachen Expression der unbehandelten Kontrolle sind als signifikant differentiell exprimiert eingestuft. Werte die größer/gleich der 1,5-fachen Expression oder kleiner/gleich der 0,6-fachen Expression der unbehandelten Kontrolle sind, werden als tendenziell differentiell exprimiert eingestuft. Die Ergebnisse sind in Tabelle 4 zusammengefasst.
Background: Quantitative PCR measures a nucleic acid by following its amplification.

Data set [2] has as its system KGF. The experiment in a line: Differential gene expression by qRT-PCR in dermal papilla cells: KGF. The format is cell-based. Particulars: 24 h, Taurin 0,5 %, Coffein 0,025 %; for KGF Mittelwert: untreated Kontrolle = 1, spread in brackets, 4 biological replicates, >=2 or <=0,5 signifikant, >=1,5 or <=0,6 tendenziell; for Expression von KGF: result in words.
Text: as §1, §2, §3, §4

For the next data set, the system named is IGFBP3. The experiment in a line: Differential gene expression by qRT-PCR in dermal papilla cells: IGFBP3. The format is cell-based. Particulars: 24 h, Taurin 0,5 %, Coffein 0,025 %; for IGFBP3 Mittelwert: untreated Kontrolle = 1, spread in brackets, 4 biological replicates, >=2 or <=0,5 signifikant, >=1,5 or <=0,6 tendenziell; for Expression von IGF-BP3: result in words.
Text: as §1
Diesen Eigenschaften gegenüber steht die Expression von IGFBP-3. Dieses Genprodukt führt neben Anderen zu einer.Verschiebung des Zyklus von der Wachstums- zur Regressionsphase. Nach Applikation von Substanzen, die Effekte am biologisch aktiven Teil des Haares hervorrufen, könnte die Bestimmung der Veränderungen der Expression dieses Gens Aussagen über Haarwuchsstimulantien oder -inhibitoren liefern.
as §3, §4

The test system of data set [3] is KGF. The experiment in a line: Growth factor release (ELISA) from reconstructed dermal papillae: KGF. The format is cell-based. Particulars: 24 h, Taurin 0,5 %, Coffein 0,025 %; for KGF-Freisetzung Mittelwert: quadruplicates, compared with untreated Kontrolle = 100, spread in brackets; for Steigerung der KGF Ausschüttung: increase over untreated control. From the text:
(§5) Die beiden Wachstumsfaktoren Hepatocyte Growth Factor (HGF) und Keratinocyte Growth Factor (KGF) sind wichtige Regulatoren des Haarzyklus. Bei potentiell wachstumsfördemden und den vorzeitigen Haarverlust vermindernden Substanzen kann von einer Steigerung eines der ausgeschütteten Faktoren ausgegangen werden. Die Ausschüttung von HGF sowie KGF kann mit Hilfe von kommerziell erhältlichen ELISA-Kits quantifiziert werden.
(§6) Die Ergebnisse finden sich in Tabelle 5 wieder. Tabelle 5: KGF- und HGF-Freisetzung in [%] nach Behandlung rekonstruierter dermaler Papillen im Vergleich zu unbehandelten Kontrollen.

Data set [4] relates to HGF. The experiment in a line: Growth factor release (ELISA) from reconstructed dermal papillae: HGF. The format is cell-based. To be noted: 24 h, Taurin 0,5 %, Coffein 0,025 %; for HGF-Freisetzung Mittelwert: quadruplicates, compared with untreated Kontrolle = 100, spread in brackets; for Steigerung der HGF-Ausschüttung: increase over untreated control.
Text: as §5, §6
In general terms: ELISA stands for enzyme-linked immunosorbent assay.

Data set [5] has as its system kultivierte dermale Papillenzellen.
Text: Die Bestimmung der Freisetzung von Laktat-Dehydrogenase (LDH) kultivierter Zellen gibt Auskunft über die Schädigung der Zellmembran. In unbeschädigten Zellen ist LDH ausschließlich im Zytoplasma lokalisiert. Erst durch Schädigung der Zellmembran kann LDH in das umgebende Kulturmedium diffundieren. Mit Hilfe eines Substrat-gekoppelten kolorimetrischen Testsystems kann die Menge an freigesetztem LDH bestimmt werden.
Zur Bestimmung möglicher zellschädigender Nebeneffekte wurden kultivierte dermale Papillenzellen mit den in Tabelle 2 aufgeführten Lösungen kultiviert und nach Behandlung die Menge an LDH im Medium analysiert. Es wurde die Zeit bestimmt, die benötigt wird, um eine definierte Menge an Farbstoff umzusetzen. […] Hierbei gilt, dass Werte < 80 % auf mögliche zellschädigende Reaktionen hindeuten.

Structures are written as SMILES.

For `NCCS(=O)(=O)O` [Taurin, 2-Aminoethansulfonsäure], in the data set with HGF [1], the “HGF Mittelwert” value is given as 1,03 (0,30) x-fache Expression and the “Expression von HGF” value was “keinen signifikanten Änderungen”. For the same compound, in the data set on KGF [2], the “KGF Mittelwert” value is 1,08 (0,12) x-fache Expression and the “Expression von KGF” value is given as “keinen signifikanten Änderungen”. Also, in the data set on IGFBP3, the “IGFBP3 Mittelwert” value is reported as 1,41 (0,18) x-fache Expression and the “Expression von IGF-BP3” value is listed as “keinen signifikanten Änderungen”. In the data set on KGF [3], the “KGF-Freisetzung Mittelwert” value is 110(11,5) % and the “Steigerung der KGF Ausschüttung” value was 19%. Besides, in the data set with HGF [4], the “HGF-Freisetzung Mittelwert” value is 152 (29,9) % and the “Steigerung der HGF-Ausschüttung” value was 52%. Moreover, in data set [5], the “Freisetzung von LDH Mittelwert (%)” value is 134,1% and the “zellschädigende Effekte” value is reported as “weder nach Behandlung mit Taurin oder Coffein allein, noch mit einem Gemisch beider Verbindungen zellschädigende Effekte nachgewiesen werden können”.
Turning to `Cn1c(=O)c2c(ncn2C)n(C)c1=O` [Coffein, reference compound], in the data set with HGF [1], the “HGF Mittelwert” value is given as 1,62 (0,46) x-fache Expression and the “Expression von HGF” value is on record as “tendenzielle Aktivierung”. In the data set on KGF [2], the “KGF Mittelwert” value is 1,44 (0,13) x-fache Expression and the “Expression von KGF” value is “tendenzielle Aktivierung”. Also, in the data set on IGFBP3, the “IGFBP3 Mittelwert” value is 0,44 (0,07) x-fache Expression and the “Expression von IGF-BP3” value is reported as “signifikante Deaktivierung”. Further, in the data set with KGF [3], the “KGF-Freisetzung Mittelwert” value was 119 (9,7) % and the “Steigerung der KGF Ausschüttung” value is reported as 10%. In addition, in the data set with HGF [4], the “HGF-Freisetzung Mittelwert” value is given as 170 (35,8) % and the “Steigerung der HGF-Ausschüttung” value is 70%.

The values are drawn from EP2054020B1, “COSMETIC COMPOSITION COMPRISING PURINE AND/OR A PURINE DERIVATIVE AND TAURINE” (Henkel AG & Co. KGaA, priority 2006, dated 2008).
